According to publication PMC5423902, “CXCL9-Derived Peptides Differentially Inhibit Neutrophil Migration In Vivo through Interference with Glycosaminoglycan Interactions” (Frontiers in Immunology, 2017):
Peptide text beside a SMILES is read from it. * marks the point of attachment. 5TAMRA = CN(C)c1ccc2c(c1)Oc1cc(N(C)C)ccc1C21OC(=O)c2cc(C(=O)*)ccc21

Tests used:
[1] = system: CXCL8(1-77) binding to heparin; assay: Competition with CXCL8 for binding to immobilized heparin (ELISA-like); set-up: species or system human; conditions: heparin-coated plates, n ≥ 4
Experimental: (§1) The ability of the COOH-terminal peptides of CXCL9 and CXCL4 to compete for GAG binding with the inflammatory chemokines CXCL8 and CXCL1 was evaluated on heparin-binding plates [BD Biosciences or produced by Jason Whittle (School of Engineering/Future Industries Institute, University of South Australia, Australia)] ([42], [47]). In brief, GAGs (heparin, HS, and CS; Iduron; 25 µg/ml) were coated overnight at room temperature. Dilutions of COOH-terminal CXCL9 or CXCL4 peptide combined with recombinant human CXCL8(1-77) or recombinant murine CXCL1(1-72) (Peprotech, Rocky Hill, NJ, USA) were added in duplicate and incubated for 2 h at 37°C. Subsequently, bound CXCL8 or CXCL1 was detected with biotinylated polyclonal rabbit anti-human CXCL8 or biotinylated polyclonal goat anti-mouse CXCL1 (Peprotech) and horse radish peroxidase-labeled streptavidin. Finally, the peroxidase activity was quantified at 450 nm.
(§2) Figure 3 CXCL9(74-93) competes with CXCL8 for binding to heparin, heparan sulfate (HS), and cellular glycosaminoglycans (GAGs). Competition between CXCL8 and COOH-terminal CXCL9 or CXCL4 peptides for binding to immobilized heparin (A) or HS (B) and to Chinese hamster ovary (CHO) cells (C) was performed. […] Bound CXCL8 was detected with biotinylated anti-human CXCL8 antibodies. (C) Binding of NH2-terminally biotinylated CXCL8(1-77) (300 nM) to CHO cells in the presence or absence of an excess CXCL9 peptide was detected by streptavidin-allophycocyanin and flow cytometry. The mean (± SEM) percentage inhibition of binding of CXCL8(1-77) to heparin, HS or cellular GAGs is indicated on the y-axis (n ≥ 4). Statistical comparison of the different competitors with CXCL9(74–103) was performed using the Mann–Whitney U-test (*p < 0.05).

[2] = system: cellular GAGs on CHO cells; conditions: binds dose-dependently to GAGs on CHO cells; cited from earlier work
[3] = Plasma level of intravenously injected fluorescent CXCL9(74-103); type: in vivo, mouse; conditions: spectrofluorometric
Source text: Intravenously injected fluorescent CXCL9(74-103) was detected in plasma after different time intervals by spectrofluorometric analysis and quantified against murine plasma spiked with known concentrations of the fluorescent peptide.

[4] = system: CXCL8(1-77) binding to heparan sulfate (HS); assay: Competition with CXCL8 for binding to immobilized HS (ELISA-like); set-up: species or system human; conditions: CXCL8(1-77) 0-300 nM, n ≥ 4, Figure 3B
Experimental: as §1, §2

[5] = system: CXCL8-induced neutrophil migration; conditions: cited from earlier work
[6] = system: CXCL8-induced neutrophil migration; assay: CXCL8-induced neutrophil migration to the peritoneal cavity; type: in vivo, mouse (NMRI); conditions: 108 µg peptide i.p.; data not shown
Experimental: In vivo neutrophil extravasation to the peritoneal or the knee cavity was examined, respectively, by intraperitoneal or intra-articular injection, of endotoxin-free recombinant CXCL8(1-77) (PeproTech) or vehicle (PBS) in female NMRI or C57BL/6 mice, as described previously ([42], [48]). Simultaneously, synthetic CXCL9 peptide was co-injected either intraperitoneally or injected intravenously. After 2 h (peritoneal cavity) or 3 h (knee cavity), mice were sacrificed. The peritoneal cavity was washed with saline enriched with 2% FCS and 20 U/ml heparin and total leukocyte counts were determined. For the preparation of cytospins, 10^5 cells were used and absolute number and percentage of neutrophils in the lavages were determined in duplicate independently by two researchers by differential microscopic counting. The cells present in the tibiofemoral articulation were harvested by washing the cavity with 10 µl of 3% (w/v) bovine serum albumin in PBS and diluted in 90 µl of 3% (w/v) bovine serum albumin in PBS. The number of total leukocytes was determined by counting leukocytes in a Neubauer chamber after staining with Turk’s solution. Differential counts were obtained from cytospin preparations by evaluating the percentage of each leukocyte type on a slide stained with May-Grunwald-Giemsa solution.
Figure 4 The COOH-terminal peptides of CXCL9 inhibit CXCL8-induced neutrophil migration to the peritoneal cavity. CXCL8(1-77) was injected into the peritoneal cavity of NMRI mice (n ≥ 5) simultaneously with an intraperitoneal (A) or intravenous (B,C) injection of CXCL9(74-103) or CXCL9(74–93). The number of neutrophils in the peritoneal cavity, 2 h post injection, were evaluated by differentially counting the leukocyte subtypes on Hemacolor-stained cytospins. The neutrophil counts are shown for every individual mouse, and the horizontal lines denote the median percentage. To detect statistically significant differences, the Mann–Whitney U-test was carried out (*p < 0.05; **p < 0.01; ***p < 0.005).

[7] = system: CXCL1(1-72) binding to heparan sulfate (HS); assay: Competition with CXCL1 for binding to immobilized HS; set-up: species or system murine; conditions: n ≥ 3; Figure 6A
Experimental: as §1
Competition between CXCL1 and COOH-terminal CXCL9 peptides for binding to immobilized heparan sulfate (HS) (A) and chondroitin sulfate (CS) (B) was performed. […] Bound CXCL1 was detected with biotinylated polyclonal goat anti-mouse CXCL1 antibodies. The mean (± SEM) percentage inhibition of CXCL1 binding to GAGs is indicated on the y-axis (n ≥ 3). Statistical comparison of the different competitors with CXCL9(74–103) was performed using the Mann–Whitney U-test.

[8] = system: HS expression on CHO cells; assay: HS expression on CHO cells after NaClO3 treatment, flow cytometry; type: cell-based, Chinese hamster; conditions: 100 mM NaClO3, 24 h; anti-HS antibody; data not shown
Experimental: Chinese hamster ovary (CHO) cells were a gift from M. Parmentier (ULB, Brussels, Belgium) and were cultured in Ham’s F-12 medium (with L-glutamine; Lonza, Belgium) supplemented with 10% fetal calf serum (FCS) and 0.8% G418 (Geneticin®; Life Technologies), as described ([44]). To inhibit sulfation of cellular GAGs, CHO cells were cultured in the presence of 100 mM sodium chlorate (NaClO3) for 24 h as previously described ([42]).
Binding of biotinylated CXCL9(74-103) and CXCL9(74-93) to CHO cells was assessed by flow cytometry as recently described ([42]). Briefly, cells were detached with phosphate-buffered saline (PBS) with 0.02% ethylenediaminetetraacetic acid (EDTA) and incubated with NH2-terminally biotinylated peptides. Subsequently, cells were incubated with streptavidin-allophycocyanin (BD Biosciences, San Jose, CA, USA) and analyzed by flow cytometry (FACSCalibur, BD Biosciences). To confirm inhibition of sulfation of cellular GAGs, part of the cells were stained with a mouse monoclonal anti-human HS antibody (Immunosource, Schilde, Belgium) and a secondary phycoerythrin-labeled goat anti-mouse antibody (BD Biosciences). Finally, cells were analyzed by flow cytometry. Analogously, binding of 100 nM biotinylated CXCL8 in the presence or absence of CXCL9(74-103) or CXCL9(74-93) was compared on CHO cells.

## 47NGRKICLDLQAPLYKKIIKKLLES70 [CXCL4(47-70), COOH-terminal peptide of CXCL4, reference compound]
[1]; CXCL8(1-77) 0-300 nM, 2 h at 37°C, anti-CXCL8 detection, 450 nm, Figure 3A
  molar excess over CXCL8 giving 50% reduction of CXCL8 binding to heparin: more than 100 fold molar excess
[1]; Figure 3
  competition with CXCL8 for heparin binding (relative potency): less potent competitor of CXCL8 binding than the CXCL9 peptides
[2]
  affinity for GAGs on CHO cells relative to CXCL9(74-103): about fivefold lower affinity than CXCL9(74-103)

## CC(C)C[C@H](NC(=O)[C@@H](NC(=O)[C@H](CCCCN)NC(=O)[C@H](CCCCN)NC(=O)[C@H](CCCCN)NC(=O)[C@H](CCC(N)=O)NC(=O)[C@H](Cc1c[nH]cn1)NC(=O)[C@H](CCCCN)NC(=O)[C@H](CCCCN)NC(=O)CNC(=O)[C@H](CC(N)=O)NC(=O)[C@H](CCCCN)NC(=O)[C@H](CCC(N)=O)NC(=O)[C@H](CCCCN)NC(=O)[C@H](CCCCN)NC(=O)[C@H](CCCCN)NC(=O)c1ccc2c(c1)C(=O)OC21c2ccc(N(C)C)cc2Oc2cc(N(C)C)ccc21)C(C)C)C(=O)N[C@@H](CCCCN)C(=O)N[C@H](C(=O)N[C@@H](CCCNC(=N)N)C(=O)N[C@@H](CCCCN)C(=O)N[C@@H](CO)C(=O)N[C@@H](CCC(N)=O)C(=O)N[C@@H](CCCNC(=N)N)C(=O)N[C@@H](CO)C(=O)N[C@@H](CCCNC(=N)N)C(=O)N[C@@H](CCC(N)=O)C(=O)N[C@@H](CCCCN)C(=O)N[C@@H](CCCCN)C(=O)N[C@H](C(=O)N[C@H](C(=O)O)[C@@H](C)O)[C@@H](C)O)C(C)C [TAMRA-CXCL9(74-103)] (5TAMRA-KKKQKNGKKHQKKKVLKVRKSQRSRQKKTT-OH)
[3]; 5 min after i.v. injection, assuming a blood volume of 3 ml
  fraction of injected amount detected in plasma: 3%
[3]; mouse, plasma, iv, 5 min after i.v. injection, read-out: plasma concentration
  level at 5 min: 2000 ng/mL
[3]; mouse, plasma, iv, 1 h after i.v. injection, no circulating peptide detected, read-out: plasma concentration
  level at 1 h: < 240 ng/mL

## 86KKVLKVRKSQRSRQKKTT103 [CXCL9(86-103), COOH-terminal peptide of CXCL9]
[4]
  inhibition of CXCL8 binding on HS-coated plates: poorly competing
[5]
  inhibition of chemotactic activity of CXCL8 in vivo: unable to inhibit chemotactic activity of CXCL8 in vivo
[6]
  inhibition of CXCL8-induced neutrophil migration to peritoneal cavity: did not inhibit CXCL8-induced neutrophil migration
[7]
  competition for CXCL1 binding to HS: not able to inhibit the interaction between CXCL1 and HS

## [Na+].[O-][Cl+2]([O-])[O-] [NaClO3, sodium chlorate]
[8]
  reduction of HS expression on CHO cells: 71.4%
